Data as given in patent US9951028B2, “Agricultural chemicals” (REDAG CROP PROTECTION LTD, priority 2013, dated 2018).

Tests used:
Assay type in all cases: in vivo
[1] = test system: Abutilon theophrasti (China Jute); experiment: Herbicidal efficacy screen, corrected necrosis
Method: (§1) Plants were obtained as seeds and were grown to the 2-4 true leaf stage. Plants were grown under laboratory conditions, individually in seed trays. Each plant (in an approximately 3 cm diameter plug) was then detached from the tray for spraying. The compounds were screened at a range of five concentrations, diluted in acetone and Tween™. A carrier only control was also conducted. Treatments were applied directly onto the plants, using a potter tower, at a specified application rate. One plant of each species was sprayed using a potter tower. The 3 different types of plants were placed on a 10 cm diameter platform directly beneath the potter sprayer and sprayed simultaneously. The growth of the plants and any Phytotoxicity effects were then assessed at intervals over 21 days, according to EPPO guideline PP1/135. In the tables below C represents a percentage increase in necrosis relative to the control of 0.1-50; B represents a percentage inhibition of 50-80; and A represents a percentage inhibition of 80-100. Certain compounds of the invention were screened for herbicidal efficacy against target plants: Amaranthus retroflexus (redroot pigweed), Abutilon theophrasti (China Jute): Capsella bursa-pastoris, (shepherd's-purse) Echinochloa crus-galli, Hordeum vulgare (Barley),

[2] = test system: Amaranthus retroflexus (redroot pigweed); experiment: Herbicidal efficacy screen, corrected necrosis
Method: as §1

[3] = test system: Capsella bursa-pastoris, (shepherd's-purse); experiment: Herbicidal efficacy screen, corrected necrosis
Method: as §1

[4] = test system: common chickweed, Stellaria media; experiment: Herbicidal efficacy screen, potter tower spray, necrosis assessed
Method: (§2) Compounds 22, 23 and 24 were screened for herbicidal efficacy against target plants: garden cress, Lepidium sativum, common chickweed, Stellaria media, and white mustard […] alba Plants were obtained as seeds and were grown to the 2-4 true leaf stage. Plants were grown under laboratory conditions, individually in seed trays. Each plant (in an approximately 3 cm diameter plug) was then detached from the tray for spraying. The compounds were screened at a range of five concentrations, diluted in acetone and TweenTM. A carrier only control was also conducted. Treatments were applied directly onto the plants, using a potter tower, at a specified application rate. One plant of each species was sprayed using a potter tower. The 3 different types of plants were placed on a 10 cm diameter platform directly beneath the potter sprayer and sprayed simultaneously. The growth of the plants and any Phytotoxicity effects were then assessed at intervals over 21 days, according to EPPO guideline PP1/135. Five replicas were performed for each treatment, for each species. In the tables below C represents a percentage increase in necrosis relative to the control of 0.1-50; B represents a percentage inhibition of 50-80; and A represents a percentage inhibition of 80-100.

[5] = test system: white mustard Sinapsis alba; experiment: as above; conditions: 12.5 g/ha
Method: as §2

[6] = 6.25 g/ha, day 1 post application
[7] = 6.25 g/ha, day 7 post application
[8] = 12.5 g/ha, day 1 post application
[9] = 12.5 g/ha, day 7 post application
[10] = 25 g/ha, day 1 post application
[11] = 25 g/ha, day 7 post application
[12] = 50 g/ha, day 1 post application
[13] = 50 g/ha, day 7 post application
[14] = 100 g/ha, day 1 post application
[15] = 100 g/ha, day 7 post application

For `CC(C)C(C)S(=O)(=O)NCc1cc(-n2c(=O)cc(C(F)(F)F)n(C)c2=O)c(F)cc1Cl` (stereo not shown) [Compound 24, N-[[2-Chloro-4-fluoro-5-[3-methyl-2,6-dioxo-4-(trifluoromethyl)pyrimidin-1-yl]phenyl]methyl]-3-methyl-butane-2-sulfonamide], the “Average of corrected necrosis” value [1, 6] was 0%, the “Average of corrected necrosis” value [1, 7] was “A (A represents a percentage inhibition of 80-100)” and the “Average of corrected necrosis” value [1, 8] was 0%. For the same compound, the “Average of corrected necrosis” value [1, 9] was “A (A represents a percentage inhibition of 80-100)”, the “Average of corrected necrosis” value [1, 10] was 0% and the “Average of corrected necrosis” value [1, 11] was “A (A represents a percentage inhibition of 80-100)”. The “Average of corrected necrosis” value [1, 12] was 0%, the “Average of corrected necrosis” value [1, 13] was “A (A represents a percentage inhibition of 80-100)” and the “Average of corrected necrosis” value [1, 14] was “C (C represents a percentage increase in necrosis relative to the control of 0.1-50)”. For the same compound, the “Average of corrected necrosis” value [1, 15] was “A (A represents a percentage inhibition of 80-100)”, the “Average of corrected necrosis” value [2, 6] was “C (C represents a percentage increase in necrosis relative to the control of 0.1-50)” and the “Average of corrected necrosis” value [2, 7] was “A (A represents a percentage inhibition of 80-100)”. The “Average of corrected necrosis” value [2, 8] was “C (C represents a percentage increase in necrosis relative to the control of 0.1-50)”, the “Average of corrected necrosis” value [2, 9] was “A (A represents a percentage inhibition of 80-100)” and the “Average of corrected necrosis” value [2, 10] was “C (C represents a percentage increase in necrosis relative to the control of 0.1-50)”. The “Average of corrected necrosis” value [2, 11] was “A (A represents a percentage inhibition of 80-100)”, the “Average of corrected necrosis” value [2, 12] was “C (C represents a percentage increase in necrosis relative to the control of 0.1-50)” and the “Average of corrected necrosis” value [2, 13] was “A (A represents a percentage inhibition of 80-100)”. For the same compound, the “Average of corrected necrosis” value [2, 14] was “C (C represents a percentage increase in necrosis relative to the control of 0.1-50)”, the “Average of corrected necrosis” value [2, 15] was “A (A represents a percentage inhibition of 80-100)” and the “Average of corrected necrosis” value [3, 6] was “C (C represents a percentage increase in necrosis relative to the control of 0.1-50)”. The “Average of corrected necrosis” value [3, 7] was “A (A represents a percentage inhibition of 80-100)”, the “Average of corrected necrosis” value [3, 8] was 0% and the “Average of corrected necrosis” value [3, 9] was “B (B represents a percentage inhibition of 50-80)”. For the same compound, the “Average of corrected necrosis” value [3, 10] was “C (C represents a percentage increase in necrosis relative to the control of 0.1-50)”, the “Average of corrected necrosis” value [3, 11] was “A (A represents a percentage inhibition of 80-100)” and the “Average of corrected necrosis” value [3, 12] was “C (C represents a percentage increase in necrosis relative to the control of 0.1-50)”. For the same compound, the “Average of corrected necrosis” value [3, 13] was “A (A represents a percentage inhibition of 80-100)”, the “Average of corrected necrosis” value [3, 14] was “C (C represents a percentage increase in necrosis relative to the control of 0.1-50)” and the “Average of corrected necrosis” value [3, 15] was “A (A represents a percentage inhibition of 80-100)”. For the same compound, the Average of necrosis [4, 8] was “C (C represents a percentage increase in necrosis relative to the control of 0.1-50)”, the Average of necrosis ([4]; 12.5 g/ha, day 2 post application) was “C (C represents a percentage increase in necrosis relative to the control of 0.1-50)” and the Average of necrosis ([4]; 12.5 g/ha, day 3 post application) was “C (C represents a percentage increase in necrosis relative to the control of 0.1-50)”. For the same compound, the Average of necrosis ([4]; 12.5 g/ha, day 4 post application) was “C (C represents a percentage increase in necrosis relative to the control of 0.1-50)”, the Average of necrosis ([4]; 12.5 g/ha, day 5 post application) was “C (C represents a percentage increase in necrosis relative to the control of 0.1-50)” and the Average of necrosis [4, 9] was “C (C represents a percentage increase in necrosis relative to the control of 0.1-50)”. The Average of necrosis ([4]; 12.5 g/ha, day 10 post application) was “C (C represents a percentage increase in necrosis relative to the control of 0.1-50)”, the Average of necrosis [4, 10] was “C (C represents a percentage increase in necrosis relative to the control of 0.1-50)” and the Average of necrosis ([4]; 25 g/ha, day 2 post application) was “C (C represents a percentage increase in necrosis relative to the control of 0.1-50)”. For the same compound, the Average of necrosis ([4]; 25 g/ha, day 3 post application) was “C (C represents a percentage increase in necrosis relative to the control of 0.1-50)”, the Average of necrosis ([4]; 25 g/ha, day 4 post application) was “C (C represents a percentage increase in necrosis relative to the control of 0.1-50)” and the Average of necrosis ([4]; 25 g/ha, day 5 post application) was “C (C represents a percentage increase in necrosis relative to the control of 0.1-50)”. For the same compound, the Average of necrosis [4, 11] was “C (C represents a percentage increase in necrosis relative to the control of 0.1-50)”, the Average of necrosis ([4]; 25 g/ha, day 10 post application) was “C (C represents a percentage increase in necrosis relative to the control of 0.1-50)” and the Average of necrosis [4, 12] was “C (C represents a percentage increase in necrosis relative to the control of 0.1-50)”. For the same compound, the Average of necrosis ([4]; 50 g/ha, day 2 post application) was “C (C represents a percentage increase in necrosis relative to the control of 0.1-50)”, the Average of necrosis ([4]; 50 g/ha, day 3 post application) was “C (C represents a percentage increase in necrosis relative to the control of 0.1-50)” and the Average of necrosis ([4]; 50 g/ha, day 4 post application) was “C (C represents a percentage increase in necrosis relative to the control of 0.1-50)”. For the same compound, the Average of necrosis ([4]; 50 g/ha, day 5 post application) was “A (A represents a percentage inhibition of 80-100)”, the Average of necrosis [4, 13] was “A (A represents a percentage inhibition of 80-100)” and the Average of necrosis ([4]; 50 g/ha, day 10 post application) was “A (A represents a percentage inhibition of 80-100)”. For the same compound, the Average of necrosis [4, 14] was “C (C represents a percentage increase in necrosis relative to the control of 0.1-50)”, the Average of necrosis ([4]; 100 g/ha, day 2 post application) was “C (C represents a percentage increase in necrosis relative to the control of 0.1-50)” and the Average of necrosis ([4]; 100 g/ha, day 3 post application) was “C (C represents a percentage increase in necrosis relative to the control of 0.1-50)”. The Average of necrosis ([4]; 100 g/ha, day 4 post application) was “B (B represents a percentage inhibition of 50-80)”, the Average of necrosis ([4]; 100 g/ha, day 5 post application) was “B (B represents a percentage inhibition of 50-80)” and the Average of necrosis [4, 15] was “B (B represents a percentage inhibition of 50-80)”. For the same compound, the Average of necrosis ([4]; 100 g/ha, day 10 post application) was “A (A represents a percentage inhibition of 80-100)”, the Average of necrosis ([4]; 200 g/ha, day 1 post application) was “C (C represents a percentage increase in necrosis relative to the control of 0.1-50)” and the Average of necrosis ([4]; 200 g/ha, day 2 post application) was “C (C represents a percentage increase in necrosis relative to the control of 0.1-50)”. For the same compound, the Average of necrosis ([4]; 200 g/ha, day 3 post application) was “C (C represents a percentage increase in necrosis relative to the control of 0.1-50)”, the Average of necrosis ([4]; 200 g/ha, day 4 post application) was “C (C represents a percentage increase in necrosis relative to the control of 0.1-50)” and the Average of necrosis ([4]; 200 g/ha, day 5 post application) was “A (A represents a percentage inhibition of 80-100)”. The Average of necrosis ([4]; 200 g/ha, day 7 post application) was “A (A represents a percentage inhibition of 80-100)”, the Average of necrosis ([4]; 200 g/ha, day 10 post application) was “A (A represents a percentage inhibition of 80-100)” and the Average of necrosis ([5]; day 1 post application) was “C (C represents a percentage increase in necrosis relative to the control of 0.1-50)”. For the same compound, the Average of necrosis ([5]; day 2 post application) was “C (C represents a percentage increase in necrosis relative to the control of 0.1-50)”.
